Data as given in patent US20110207751A1, “HETEROCYCLIC COMPOUNDS AND USES AS ANTICANCER AGENTS” (priority 2010, published 2011).
pIC50: −log10 of the molar value. Counter-ions that a name gives are not always drawn. Like-named read-outs stand apart in the source and are kept apart here. Values belong to the compound of their own block, whether it stands above or below them.

Legend:
[1] = Body weight and animal number of carrier mice, A549 xenograft test; type: in vivo, BALB/c immunodeficient nude mice
Source text: To evaluate the in vivo anticancer efficacy of COMPOUND O, A549 human non-small cell lung cancer xenograft models in immunodeficient nude mice was used. The cell line and mice were maintained in the Pharmacology Lab of ACEA Bio (Hangzhou) CO., Ltd. The BALB/c immunodeficient nude mice were purchased from Shanghai SLAC Laboratory Animal, certification number: SCXKA (Shanghai) 2007-0005. The mouse weight was between 21±1 g. Only female mice were used in this study. The numbers of animals tested were as follow: 7-8 for each dose group, 6 for positive control group and 7 for negative control group.
Test Control. For negative control, each mouse was administered orally with the solvent only having the same volume and same concentration as those used in COMPOUND O test, 120 mg/kg once every other day (qod) for 25 days. For positive control, an oral anticancer compound, Etoposide was administered orally at 30 mg/kg qod for 25 days.
Preparation an Administration of Test Compounds. COMPOUND O was dissolved in 25% phospholipid (S75) and 75% polyvinylpyrrolidone (PL-PVP) then further diluted to 8 mg/ml in 0.9% NaCl aqueous solution. Each mouse was administered orally with the compound solution. Different dosages of COMPOUND O (120 mg/kg qod and 160 mg/kg q2*2 (dosing for 2 consecutive days then off for 2 consecutive days) were used in the study.
All used materials including animal food, animal cage, supporting materials and apparatus contacted by animals, were high-pressure sterilized. Nude mice were maintained in laminar flow shelves under SPF condition. After tumor transplantation, mouse weight and tumor size in each compound dosage group were dynamically monitored and plotted. The tumor size was determined by measuring the major axis (a) and minor axis (b) of the tumor, and tumor volume was calculated according to the formula (2) in Example 1.

[2] = test system: microtubule network in A549 cells; test: Microtubule organization in A549 cells; type: cell-based, human; conditions: 20 hr treatment
[3] = test system: tubulin (colchicine-binding site); test: Spin column assay with [^3H]colchicine; conditions: tubulin with [^3H]colchicine and unlabeled competitor, 37° C. 1 h
Experimental: Spin column assay. […] The reaction mixtures were incubated at 37° C. for 1 h. The samples were loaded onto Illustra™ MicroSpin™ G-50 columns (GE Healthcare) previously equilibrated with the buffer solution. The columns were placed into 1.5-ml tubes and spun at 750 g for 2 min at room temperature, and radioactivity in the flow-through was analyzed by a scintillation counter.

[4] = test system: NIH 3T3 cells (the normal tissue cell line); test: Inhibition of cell proliferation, xCelligence cell index; type: cell-based; conditions: Mus musculus, NIH3T3
Source text: (§1) The biological activity of compounds disclosed herein was monitored and profiled using the Real-Time Cell Electronic Sensing (RT-CES®) system from ACEA Biosciences, Inc. The RT-CES system utilizes cell-substrate impedance technology to monitor cellular behavior inside tissue culture wells in a microtiter plate format. The technology features in the integration of molecular and cell biology with microelectronics and is based on the electronic detection of biological assay process. […]
(§2) For measurement of cell-substrate or cell-electrode impedance using RT-CES technology, microelectrodes having appropriate geometries are fabricated onto the bottom surfaces of microtiter plate or similar device, facing into the wells. […] When there are changes to the biological status of the cells analogue electronic readout signals are measured automatically and in real time, and are converted to digital signals for processing and for analysis. In a RT-CES system, a cell index (arbitrary representation of change in impedance) is automatically derived and provided based on measured electrode impedance values. […]
(§3) To quantify cell status based on the measured cell-electrode impedance, a parameter termed Cell Index is derived. Cell Index is a quantitative measure of the status of the cells in an electrode-containing well. […]

[5] = test system: HepG2 cells (human liver cancer cell line); test: as above; type: cell-based; conditions: 72 hr post compound treatment, read-out: calculated IC50
Source text: as §1, §2, §3

Compound: COc1cc([C@@H]2c3cc4c(cc3[C@@H](O[C@@H]3O[C@@H]5CO[C@@H](C)O[C@H]5[C@H](O)[C@H]3O)[C@H]3COC(=O)[C@H]23)OCO4)cc(OC)c1O [Etoposide, reference compound]
Animal weight (g) Beginning ([1]; 30 mg/kg ig × 13 qod): 21.30 g
Animal weight (g) end ([1]; 30 mg/kg ig × 13 qod): 18.18 g
Body weight of mice (g) 1 day ([1]; 30 mg/kg ig × 13 qod): 21.30 ± 0.70 g
Body weight of mice (g) 4 day ([1]; 30 mg/kg ig × 13 qod): 19.38 ± 2.22 g
Body weight of mice (g) 8 day ([1]; 30 mg/kg ig × 13 qod): 20.53 ± 1.26 g
Body weight of mice (g) 11 day ([1]; 30 mg/kg ig × 13 qod): 19.62 ± 1.15 g
Body weight of mice (g) 15 day ([1]; 30 mg/kg ig × 13 qod): 19.63 ± 1.63 g
Body weight of mice (g) 18 day ([1]; 30 mg/kg ig × 13 qod): 19.48 ± 2.01 g
Body weight of mice (g) 22 day ([1]; 30 mg/kg ig × 13 qod): 19.10 ± 2.57 g
Body weight of mice (g) 25 day ([1]; 30 mg/kg ig × 13 qod): 18.18 ± 1.86 g
Animal No. end ([1]; 30 mg/kg ig × 13 qod, 6 at beginning): 6/6

pIC50 [5]: 7.59
Compound: CCc1ccc(Nc2nc(-c3c(C)nc4sccn34)cs2)cc1 [COMPOUND O, 2-(4-ethylphenyl)amino-4-(6-methylimidazo[2,1-b]thiazol-5-yl)-thiazole monohydrobromide]
effect on microtubule organization [2]: findings similar to those of vincristine-induced microtubule changes
amount of [^3H]colchicine in the flow-through [3]: reduced the amount of [^3H]colchicine in the flow-through in a concentration-dependent manner
Animal weight (g) Beginning ([1]; 120 mg/kg ig × 14 qod): 20.77 g
Animal weight (g) end ([1]; 120 mg/kg ig × 14 qod): 16.94 g
Body weight of mice (g) 1 day ([1]; 120 mg/kg ig × 14 qod): 20.77 ± 0.68 g
Body weight of mice (g) 4 day ([1]; 120 mg/kg ig × 14 qod): 20.27 ± 0.83 g
Body weight of mice (g) 8 day ([1]; 120 mg/kg ig × 14 qod): 19.57 ± 1.09 g
Body weight of mice (g) 11 day ([1]; 120 mg/kg ig × 14 qod): 18.20 ± 0.59 g
Body weight of mice (g) 15 day ([1]; 120 mg/kg ig × 14 qod): 17.90 ± 0.61 g
Body weight of mice (g) 18 day ([1]; 120 mg/kg ig × 14 qod): 17.90 ± 1.09 g
Body weight of mice (g) 22 day ([1]; 120 mg/kg ig × 14 qod): 17.21 ± 1.20 g
Body weight of mice (g) 25 day ([1]; 120 mg/kg ig × 14 qod): 17.00 ± 1.29 g
Animal No. end ([1]; 120 mg/kg ig × 14 qod, 7 at beginning): 7/7
Animal weight (g) Beginning ([1]; 160 mg/kg ig × 11 q2*2): 21.69 g
Animal weight (g) end ([1]; 160 mg/kg ig × 11 q2*2): 17.97 g
Body weight of mice (g) 1 day ([1]; 160 mg/kg ig × 11 q2*2): 21.69 ± 0.66 g
Body weight of mice (g) 4 day ([1]; 160 mg/kg ig × 11 q2*2): 21.20 ± 0.79 g
Body weight of mice (g) 8 day ([1]; 160 mg/kg ig × 11 q2*2): 19.00 ± 1.48 g
Body weight of mice (g) 11 day ([1]; 160 mg/kg ig × 11 q2*2): 17.78 ± 2.11 g
Body weight of mice (g) 15 day ([1]; 160 mg/kg ig × 11 q2*2): 17.43 ± 1.86 g
Body weight of mice (g) 18 day ([1]; 160 mg/kg ig × 11 q2*2): 18.43 ± 0.90 g
Body weight of mice (g) 22 day ([1]; 160 mg/kg ig × 11 q2*2): 18.70 ± 1.04 g
Body weight of mice (g) 25 day ([1]; 160 mg/kg ig × 11 q2*2): 17.97 ± 0.93 g
Animal No. end ([1]; 160 mg/kg ig × 11 q2*2, 8 at beginning): 8/3
pIC50 ([4]; NIH 3T3, 72 hr post compound treatment, read-out: calculated IC50): 5.22
pIC50 ([4]; NIH-3T3, read-out: IC50): 5.22

Compound: CC(=O)O[C@H]1C(=O)[C@@]2(C)[C@H]([C@H](OC(=O)c3ccccc3)[C@]3(O)C[C@H](OC(=O)[C@H](O)[C@@H](NC(=O)c4ccccc4)c4ccccc4)C(C)=C1C3(C)C)[C@]1(OC(C)=O)CO[C@@H]1C[C@@H]2O [paclitaxel]
effect on microtubule organization [2]: microtubule polymerization with an increasing in the density of cellular microtubules
